Source: patent US20230286973A1, “PROTEIN SECRETION INHIBITORS” (KEZAR LIFE SCIENCES, priority 2020, published 2023)
pEC50, pIC50: −log10 of the molar value. Like-named read-outs stand apart in the source and are kept apart here.

Columns and labels:
[1] = system: multiple myeloma cell line U266B1; experiment: U266 Cell Viability Assay; format: cell-based, human; settings: Homo sapiens, U-266, 48 h, U266B1 cells, Celltiter-Glo
Summary of the method: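 Cells grown in RPMI 1640 with 10% FBS, 2 mM glutamine and penicillin/streptomycin were exposed to compound dilutions in DMSO/media for 48 hours at 37° C., 5% CO2. Viability was read by CellTiter-Glo luminescence. Undefined stereocentres mean data for stereoisomer mixtures.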

[2] = system: PD1-ss+10aa/Gaussia Luciferase; experiment: Dox-Induced PD1-ss-Gluc Assay; format: cell-based; settings: 24 hr Dox induction, 293FRT/TO cells, read-out: 24 hr Dox Inducible PD1ssGluc 293FRT/TO: Mean IC50
Summary of the method: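 The cell line was made by transfecting Flp-In 293 T-REx cells with a PD1 signal sequence+10aa–Gaussia luciferase fusion under T-REx control and selecting with hygromycin and blasticidin. Cells were seeded, and next day compound plus doxycycline was added at 37 °C, 5% CO2.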

[3] = system: HER3-ss+4aa/Gaussia Luciferase; experiment: Dox-Induced Her3-ss-Gluc Assay; format: cell-based; settings: 24 hr Dox induction, 293FRT/TO cells, read-out: 24 hr Dox Inducible Her3(ss + 4)Gluc 293FRT/TO: Mean IC50
Summary of the method: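 Stable Flp-In 293 T-REx line expressing Gaussia luciferase fused to the HER3 signal sequence plus 4 amino acids under tetracycline-regulated (T-REx) control. Cells plated the day before, then treated with compound dilutions in DMSO/media containing doxycycline and incubated at 37° C., 5% CO2.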

[4] = Liver Microsome Stability Assay (monkey); settings: monkey liver microsomes, with NADPH, 1.0 uM compound
Description: (§1) Stability of a compound was assessed in the presence of liver microsomes from various sources—mouse, rat, monkey and human liver microsomes. 1.0 uM compound, 0.4% DMSO in 0.1 M Potassium Phosphate with 1.0 mg/mL liver microsomes, were incubated at 37° C. with or without 1 mM NADPH. The samples were quenched at 0, and 30 minutes.

[5] = system: IL-2-FL/Gaussia Luciferase; experiment: Dox Induced IL2-FL-Gluc Assay; format: cell-based; settings: for pIC50: 24 hr Dox induction, 293FRT/TO cells, read-out: 24 hr Dox Inducible IL2FLGluc 293FRT/TO: Mean IC50; for 24 hr Dox Inducible IL2FLGluc 293FRT/TO: IL2/PD1: ratio of IL2FLGluc IC50 to PD1ssGluc IC50
Summary of the method: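 Flp-In 293 T-REx cells stably carrying doxycycline-inducible full-length IL-2 (aa 1-153) fused at its C-terminus to Gaussia luciferase, selected with hygromycin and blasticidin. Cells were plated the day before, then treated with compounds in DMSO/media containing doxycycline at 37° C, 5% CO2.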

[6] = system: TNFα-FL/Gaussia Luciferase; experiment: Dox Induced TNFα-FL-Gluc Assay; format: cell-based; settings: for pIC50: 24 hr Dox induction, 293FRT/TO cells, read-out: 24 hr Dox Inducible TNFaFLGluc 293FRT/TO: Mean IC50; for 24 hr Dox Inducible TNFaFLGluc 293FRT/TO: TNF/PD1: ratio of TNFaFLGluc IC50 to PD1ssGluc IC50
Summary of the method: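 Flp-In 293 T-REx cells stably expressing full-length TNFα (aa 1-233) fused at its C-terminus to Gaussia luciferase under tetracycline-regulated control were plated the day before assay. Compound dilutions in DMSO/media containing doxycycline were added and incubated at 37 °C, 5% CO2. Unspecified stereochemistry denotes stereoisomer mixtures.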

[7] = Liver Microsome Stability Assay (human); settings: human liver microsomes, with NADPH, 1.0 uM compound
Description: as §1

[8] = system: multiple myeloma cell line NCI-H929; experiment: H929 Cell Viability Assay; format: cell-based, human; settings: Homo sapiens, NCI-H929, 48 h, NCI-H929 cells, Celltiter-Glo
Summary of the method: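 NCI-H929 cells, resuspended in RPMI 1640 with 10% FBS and 2 mM glutamine, were treated with compound dilutions in DMSO/media and incubated 48 hours at 37° C, 5% CO2. Viability was read by CellTiter-Glo luminescence. Compounds drawn without stereochemistry were tested as stereoisomer mixtures.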

[9] = Liver Microsome Stability Assay (rat); settings: rat liver microsomes, with NADPH, 1.0 uM compound
Description: as §1

[10] = Liver Microsome Stability Assay (mouse); settings: mouse liver microsomes, with NADPH, 1.0 uM compound
Description: as §1

[11] = '<=>' given where both are I.A.

Compound | pEC50 [1] | pIC50 ([2]; mean) | pIC50 ([3]; mean) | Liver Microsome Stability (Multiple Species): Monkey - % Remaining after 30 min w/NADPH [4] [%] | pIC50 ([5]; mean) | 24 hr Dox Inducible IL2FLGluc 293FRT/TO: IL2/PD1 [5, 11] | pIC50 ([6]; mean) | 24 hr Dox Inducible TNFaFLGluc 293FRT/TO: TNF/PD1 [6, 11] | Liver Microsome Stability (Multiple Species): Human - % Remaining after 30 min w/NADPH [7] [%] | pEC50 [8] | Liver Microsome Stability (Multiple Species): Rat - % Remaining after 30 min w/NADPH [9] [%] | Liver Microsome Stability (Multiple Species): Mouse - % Remaining after 30 min w/NADPH [10] [%] | pIC50 [2] | pIC50 [3] | pIC50 [5] | 24 hr Dox Inducible IL2FLGluc 293FRT/TO: IL2/PD1 [5] | pIC50 [6] | 24 hr Dox Inducible TNFaFLGluc 293FRT/TO: TNF/PD1 [6]
Cc1ccnc(N2CCC[C@@H]2c2csc(NC(=O)c3cccn3Cc3ccncc3)n2)c1 [Compound E63, (R)-N-(4-(1-(4-methylpyridin-2-yl)pyrrolidin-2-yl)thiazol-2-yl)-1-(pyridin-4-ylmethyl)-1H-pyrrole-2-carboxamide] | < 4.60 | 7.19 | 7.01 | 0.32 | 7.02 | 1.5 | 6.15 | 11 | 0.02 | 5.53 | 0.23 | 0.72 |  |  |  |  |  | 
CC(=O)N1CCC(Oc2ccc(N3CCC[C@@H]3c3csc(NC(=O)c4cccn4Cc4ccnc(F)c4)n3)cc2)C(F)C1 (stereo partly drawn) [Compound A108, N-(4-((2R)-1-(4-((1-acetyl-3-fluoropiperidin-4-yl)oxy)phenyl)pyrrolidin-2-yl)thiazol-2-yl)-1-((2-fluoropyridin-4-yl)methyl)-1H-pyrrole-2-carboxamide] | < 4.60 |  |  | 0.49 |  |  |  |  | 13.2 | 5.89 | 39 | 17 | 7.47 | 7.14 | 7.15 | 2.1 | 6.55 | 8.39
O=C(Nc1nc(/C=C/c2c[nH]cn2)cs1)c1cccn1Cc1ccnc(F)c1 [Compound B114, (E)-N-(4-(2-(1H-imidazol-4-yl)vinyl)thiazol-2-yl)-1-((2-fluoropyridin-4-yl)methyl)-1H-pyrrole-2-carboxamide] | < 4.60 |  |  | 43.4 |  |  |  |  | 30.7 | < 4.60 | 27.3 | 59.3 | 5.28 | < 4.60 | < 4.60 | >4.8 | < 4.60 | >4.76
O=C(Nc1nc([C@H]2CCCN2c2ccccc2)cs1)c1cccn1CC1CCOC1 (stereo partly drawn) [Compound C56, N-(4-((R)-1-phenylpyrrolidin-2-yl)thiazol-2-yl)-1-((tetrahydrofuran-3-yl)methyl)-1H-pyrrole-2-carboxamide] | < 4.60 | 5.76 | 5.49 | 2.02 | 5.33 | 2.7 | 4.72 | 11 | 24.4 | < 4.60 | 10.9 | 21 |  |  |  |  |  | 
O=C(Nc1nc(/C=C/c2ccc3c(n2)CCCC3)cs1)c1cccn1Cc1ccnc(F)c1 [Compound B60, (E)-1-((2-fluoropyridin-4-yl)methyl)-N-(4-(2-(5,6,7,8-tetrahydroquinolin-2-yl)vinyl)thiazol-2-yl)-1H-pyrrole-2-carboxamide] | 4.80 |  |  | 2.65 |  |  |  |  | 0.33 | 4.89 | 1.16 | 0.45 | 6.85 | 6.14 | 5.76 | 13 | < 4.60 | >179
Cc1nc(CCc2csc(NC(=O)c3cccn3Cc3ccncc3)n2)co1 [Compound E4] | < 4.60 | 6.36 | 5.29 | 0.14 | 5.28 | 12 | < 4.60 | >57.0 | 0.12 | < 4.60 | 0.19 | 0.27 |  |  |  |  |  | 
Cc1ccc(N2CCC[C@@H]2c2csc(NC(=O)c3cccn3Cc3ccncc3)n2)nc1 [Compound E62, (R)-N-(4-(1-(5-methylpyridin-2-yl)pyrrolidin-2-yl)thiazol-2-yl)-1-(pyridin-4-ylmethyl)-1H-pyrrole-2-carboxamide] | < 4.60 | 8.53 | 8.07 | 0.19 | 8.00 | 3.4 | 7.37 | 14.6 | 0.69 | 6.90 | 15.4 | 1.51 |  |  |  |  |  | 
CC(=O)N1CC=C(Oc2ccc(N3CCC[C@@H]3c3csc(NC(=O)c4cccn4Cc4ccnc(F)c4)n3)cc2)CC1 [Compound A82, (R)-N-(4-(1-(4-((1-acetyl-1,2,3,6-tetrahydropyridin-4-yl)oxy)phenyl)pyrrolidin-2-yl)thiazol-2-yl)-1-((2-fluoropyridin-4-yl)methyl)-1H-pyrrole-2-carboxamide] | < 4.60 |  |  | 0.16 |  |  |  |  | 3.95 | 5.25 | 15.3 | 0.84 | 7.10 | 6.68 | 6.60 | 3.2 | 6.19 | 8.31
Cc1ccc(N2CCC[C@@H]2c2csc(NC(=O)c3cccn3CC3CCOCC3)n2)cc1 [Compound C53, (R)-1-((tetrahydro-2H-pyran-4-yl)methyl)-N-(4-(1-(p-tolyl)pyrrolidin-2-yl)thiazol-2-yl)-1H-pyrrole-2-carboxamide] | < 4.60 | 7.83 | 7.41 | 23.6 | 7.14 | 4.9 | 6.57 | 18.2 | 63.8 | 5.72 | 60.2 | 62.6 |  |  |  |  |  | 
